This experiment addresses T1, human kinase Mps-1 (Homo sapiens, UniProt P33981).
T1 construct: N-terminally GST-tagged human full length recombinant Mps-1 kinase; GST (N); purchased Invitrogen, Karslruhe, Germany PV4071
T1 sequence (P33981 1-857): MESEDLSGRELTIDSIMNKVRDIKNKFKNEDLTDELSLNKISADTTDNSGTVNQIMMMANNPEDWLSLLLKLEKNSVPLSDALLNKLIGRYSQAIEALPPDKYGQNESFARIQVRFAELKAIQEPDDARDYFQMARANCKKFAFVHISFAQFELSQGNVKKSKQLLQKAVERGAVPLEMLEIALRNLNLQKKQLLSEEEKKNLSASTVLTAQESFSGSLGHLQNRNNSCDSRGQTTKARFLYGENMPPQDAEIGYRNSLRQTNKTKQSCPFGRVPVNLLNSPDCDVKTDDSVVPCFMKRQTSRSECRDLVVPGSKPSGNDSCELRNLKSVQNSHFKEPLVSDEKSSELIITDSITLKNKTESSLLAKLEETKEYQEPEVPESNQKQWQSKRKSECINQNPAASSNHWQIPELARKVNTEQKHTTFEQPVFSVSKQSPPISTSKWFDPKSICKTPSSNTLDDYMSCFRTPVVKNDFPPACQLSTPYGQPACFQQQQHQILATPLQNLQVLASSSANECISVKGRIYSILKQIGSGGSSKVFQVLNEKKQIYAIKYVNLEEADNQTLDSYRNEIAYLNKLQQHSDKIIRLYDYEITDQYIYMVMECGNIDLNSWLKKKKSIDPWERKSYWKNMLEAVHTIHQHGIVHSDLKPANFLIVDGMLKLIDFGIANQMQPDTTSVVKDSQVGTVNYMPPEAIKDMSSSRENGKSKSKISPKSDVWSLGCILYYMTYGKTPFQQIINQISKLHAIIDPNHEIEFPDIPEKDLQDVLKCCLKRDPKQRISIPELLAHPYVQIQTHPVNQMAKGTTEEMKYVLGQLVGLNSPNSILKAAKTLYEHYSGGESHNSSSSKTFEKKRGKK
As to the kind of experiment: Mps-1 kinase assay (TR-FRET). The experiment is classed as biochemical. The conditions noted are these: Mps-1 TR-FRET kinase assay; avg; read-out: Mps1 avg (IC50 [mol/l]). The procedure, abridged:
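GST-tagged full-length recombinant human Mps-1 (~0.5 nM) pre-incubated 15 min with compound, then reacted 60 min at 22 °C with 10 μM ATP and 1 μM biotinylated peptide in Hepes pH 7.7 buffer. EDTA-stopped; TR-FRET (Eu anti-phospho-Ser/Thr to SA-XLent) 665/620 nm ratio normalised to no-inhibitor and no-enzyme controls.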

The text below walks through data of patent publication US20170334899A1, “AMINO-SUBSTITUTED ISOTHIAZOLES” (Bayer Pharma Aktiengesellschaft, priority 2014, published 2017).

SMILES strings stand for the structures. pIC50: −log10 of the molar value. Values joined by “and” are separate entries in the source; they are usually repeats but may differ in a detail not shown here. Identical values can stand only once.

In the case of `Cc1nsc(Nc2ccc(C#N)cn2)c1C(=O)Nc1ccc(Nc2ccc(F)c(F)c2)nc1` [Example 433, 5-[(5-Cyanopyridin-2-yl)amino]-N-{6-[(3,4-difluorophenyl)amino]pyridin-3-yl}-3-methyl-1,2-thiazole-4-carboxamide], the pIC50 is less than 4.70.
For `Cc1nsc(Nc2cnc3ccccc3n2)c1C(=O)Nc1ccc(NCCN(C)C(=O)OC(C)(C)C)nc1` [Example 434, tert-Butyl methyl(2-{[5-({[3-methyl-5-(quinoxalin-2-ylamino)-1,2-thiazol-4-yl]carbonyl}amino)pyridin-2-yl]amino}ethyl)carbamate], the pIC50 is < 4.70 and 4.72.
Under `CCN1CCC(Oc2ccc(NC(=O)c3c(C)nsc3Nc3cnc(C(F)(F)F)cn3)cn2)C(F)(F)C1` (stereo not shown) [Example 406, N-{6-[(1-Ethyl-3,3-difluoropiperidin-4-yl)oxy]pyridin-3-yl}-3-methyl-5-{[5-(trifluoromethyl)pyrazin-2-yl]amino}-1,2-thiazole-4-carboxamide] stands less than 4.70; under `COC(=O)c1cccc(NC(=O)c2c(C)nsc2Nc2cnc3ccccc3n2)c1` [Example 50, Methyl 3-({[3-methyl-5-(quinoxalin-2-ylamino)-1,2-thiazol-4-yl]carbonyl}amino)-benzoate], 5.60.
As to `COCCOc1ccc(NC(=O)c2c(C)nsc2Nc2nc3c(C(F)(F)F)cccc3s2)cn1` [Example 3, N-[6-(2-Methoxyethoxy)pyridin-3-yl]-3-methyl-5-{[4-(trifluoromethyl)-1,3-benzo-thiazol-2-yl]amino}-1,2-thiazole-4-carboxamide], the pIC50 is not above 4.70.
Regarding `Cc1nsc(Nc2cc(C#N)ccn2)c1C(=O)Nc1ccc(OC2CCCNC2)nc1` (stereo not shown) [Example 35, 5-[(4-Cyanopyridin-2-yl)amino]-3-methyl-N-[6-(piperidin-3-yloxy)pyridin-3-yl]-1,2-thiazole-4-carboxamide], the pIC50 was not above 4.70.
As for `Cc1nsc(Nc2cnc(C(F)(F)F)cn2)c1C(=O)Nc1ccc(F)c(OCCCNC(=O)C(F)(F)F)c1` [Example 427, N-(4-Fluoro-3-{3-[(trifluoroacetyl)amino]propoxy}phenyl)-3-methyl-5-{[5-(trifluoro-methyl)pyrazin-2-yl]amino}-1,2-thiazole-4-carboxamide], the pIC50 was not above 4.70.
Consider `Cc1nsc(Nc2cnc3ccccc3n2)c1C(=O)Nc1cccc(C(=O)N[C@H](C(=O)OC(C)(C)C)[C@@H](C)OC(C)(C)C)c1` [Example 57, tert-Butyl O-tert-butyl-N-[3-({[3-methyl-5-(quinoxalin-2-ylamino)-1,2-thiazol-4 yl]carbonyl}amino)-benzoyl]threoninate], for which the pIC50 is not above 4.70.
As for `Cc1nsc(Nc2cnc3ccccc3n2)c1C(=O)Nc1cccc(C(=O)OC(C)(C)C)c1` [Example 49, tert-Butyl 3-({[3-methyl-5-(quinoxalin-2-ylamino)-1,2-thiazol-4-yl]carbonyl}amino)-benzoate], the pIC50 is not above 4.70.
The value for `Cc1nsc(Nc2ccc(C#N)cn2)c1C(=O)Nc1ccc(OC2CCCN(CC(F)F)C2)nc1` (stereo not shown) [Example 39, 5-[(5-Cyanopyridin-2-yl)amino]-N-(6-{[1-(2,2-difluoroethyl)piperidin-3-yl]oxy}-pyridin-3-yl)-3-methyl-1,2-thiazole-4-carboxamide] was not above 4.70; that for `Cc1nsc(Nc2cnc3ccccc3n2)c1C(=O)Nc1cccc(C(=O)NC(C)(C)C)c1` [Example 53, N-[3-(tert-Butylcarbamoyl)-phenyl]-3-methyl-5-(quinoxalin-2-ylamino)-1,2-thiazole-4-carboxamide] was not above 4.70; that for `Cc1nsc(Nc2ccc(C#N)cn2)c1C(=O)Nc1ccc(OC2CCCN(C(=O)OC(C)(C)C)C2)nc1` (stereo not shown) [Example 36, tert-Butyl 3-({5-[({5-[(5-cyanopyridin-2-yl)amino]-3-methyl-1,2-thiazol-4-yl}-carbonyl)amino]pyridin-2-yl}oxy)piperidine-1-carboxylate] was not above 4.70.
As for `CC(=O)Nc1ccc(NC(=O)c2c(C)nsc2Nc2ccc(C#N)cn2)cn1` [Example 435, N-(6-Acetamidopyridin-3-yl)-5-[(5-cyanopyridin-2-yl)amino]-3-methyl-1,2-thiazole-4-carboxamide], the pIC50 is less than 4.70.
`Cc1nsc(Nc2cnc3ccccc3n2)c1C(=O)Nc1ccc(OCCCNC(=O)OC(C)(C)C)nc1` [Example 42, tert-Butyl (3-{[5-({[3-methyl-5-(quinoxalin-2-ylamino)-1,2-thiazol-4-yl]carbonyl}-amino)pyridin-2-yl]oxy}propyl)carbamate]: the pIC50 was not above 4.70.
On to `Cc1nsc(Nc2cnc(C(F)(F)F)cn2)c1C(=O)Nc1ccc(F)c(OCC2CCN(CC(F)(F)F)C2)c1` (stereo not shown) [Example 318, N-(4-fluoro-3-{[1-(2,2,2-trifluoroethyl)pyrrolidin-3-yl]methoxy}phenyl)-3-methyl-5-{[5-(trifluoromethyl)pyrazin-2-yl]amino}-1,2-thiazole-4-carboxamide], for which the pIC50 is less than 4.70.
Under `Cc1nsc(Nc2nc3c(C(F)(F)F)cccc3s2)c1C(=O)Nc1ccc(OCCO)nc1` [Example 2, N-[6-(2-Hydroxyethoxy)pyridin-3-yl]-3-methyl-5-{[4-(trifluoromethyl)-1,3-benzo-thiazol-2-yl]amino}-1,2-thiazole-4-carboxamide] stands not above 4.70.
